Laboratory results published in patent publication US8759377B2, “Substituted dioxopiperidines and dioxopyrrolidines as MGLUR4 allosteric potentiators, compositions, and methods of treating neurological dysfunction” (Vanderbilt University, priority 2009, dated 2014).
Like-named read-outs stand apart in the source and are kept apart here.

Assays:
human mGluR4 = target: T1, human mGluR4 (Homo sapiens, UniProt Q14833); assay: human mGluR4 potentiation, Ca2+-sensitive dye fluorescence assay in transfected CHO cells; type: cell-based; details: for Emax: CHO, maximum extent of potentiation, human mGluR4, read-out: hGluMax; for EC50: EC50 for potentiation, human mGluR4, with EC20 concentration of agonist, read-out: hEC50
T1 construct: expressed in transfected cells; host or cells: CHO cells
T1 sequence (Q14833 33-912): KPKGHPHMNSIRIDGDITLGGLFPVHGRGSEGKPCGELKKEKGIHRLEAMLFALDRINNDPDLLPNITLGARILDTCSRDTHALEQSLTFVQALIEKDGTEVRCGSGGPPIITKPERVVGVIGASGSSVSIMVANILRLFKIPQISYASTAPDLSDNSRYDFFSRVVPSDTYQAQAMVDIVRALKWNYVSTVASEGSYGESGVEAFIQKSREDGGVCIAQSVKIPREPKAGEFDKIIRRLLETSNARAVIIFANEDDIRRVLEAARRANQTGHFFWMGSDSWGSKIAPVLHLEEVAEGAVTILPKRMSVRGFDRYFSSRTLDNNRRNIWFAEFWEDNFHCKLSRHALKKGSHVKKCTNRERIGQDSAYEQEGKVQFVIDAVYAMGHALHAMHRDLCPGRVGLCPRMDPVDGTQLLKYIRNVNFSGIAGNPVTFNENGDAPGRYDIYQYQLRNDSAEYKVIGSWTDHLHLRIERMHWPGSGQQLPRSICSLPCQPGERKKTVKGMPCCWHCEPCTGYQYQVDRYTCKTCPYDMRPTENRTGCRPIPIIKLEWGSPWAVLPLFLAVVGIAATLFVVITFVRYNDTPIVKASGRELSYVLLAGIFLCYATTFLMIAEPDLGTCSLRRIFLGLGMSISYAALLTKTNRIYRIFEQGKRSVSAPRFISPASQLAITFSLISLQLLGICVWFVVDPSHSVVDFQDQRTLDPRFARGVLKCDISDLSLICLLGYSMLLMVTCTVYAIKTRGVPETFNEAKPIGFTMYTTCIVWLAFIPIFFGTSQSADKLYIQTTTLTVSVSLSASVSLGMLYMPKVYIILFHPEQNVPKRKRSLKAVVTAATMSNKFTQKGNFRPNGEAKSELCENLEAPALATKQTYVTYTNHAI
Method: (§1) The disclosed compounds and compositions can be evaluated for their ability to act as a potentiator of metabotropic glutamate receptor activity, in particular mGluR4 activity, by any suitable known methodology known in the art. For example, Chinese Hamster Ovary (CHO) cells transfected with human mGluR4 or HEK cells co-transfected with rat mGluR4 and the G-protein regulated Inwardly Rectifying Potassium channel (GIRK) were plated in clear bottom assay plates for assay in a Hamamatsu FDSS Fluorometric Plate Reader. The cells were loaded with either a Ca2+-sensitive fluorescent dye or the thallium responsive dye and the plates were washed and placed into a suitable kinetic plate reader. […] Approximately two and a half minutes later, a concentration of mGluR4 orthosteric agonist (e.g. glutamate or L-AP4) eliciting approximately 20% (EC20) of the maximal agonist response was added to the cells, and the response was measured. Two minutes later, a concentration of mGluR4 agonist (e.g. glutamate or L-AP4) eliciting 80% (EC80) of the maximal agonist response was added to the cells, and the response was measured. For rat mGluR4/GIRK experiments, a baseline was established for approximately five seconds, disclosed compounds were added, and either an EC20 or EC80 concentration of agonist was added approximately two and one half minutes later.
(§2) The above described assay operated in two modes. In the first mode, a range of concentrations of the disclosed compounds are added to cells, followed by a single fixed concentration of agonist. If the compound acts as a potentiatior, an EC50 value for potentiation and a maximum extent of potentiation by the compound at this concentration of agonist is determined by non-linear curve fitting. If the compound acts as a noncompetitive antagonist, an IC50 value is determined by non-linear curve fitting. In the second mode, several fixed concentrations of the disclosed compounds are added to various wells on a plate, followed by a range in concentrations of agonist for each concentration of disclosed compound. The ECso values for the agonist at each concentration of compound are determined by non-linear curve fitting. A decrease in the EC50 value of the agonist with increasing concentrations of the sample compound (a leftward shift of the agonist concentration-response curve) is an indication of the degree of mGluR4 potentiation at a given concentration of the sample compound. A decrease in the maximal response of the agonist with increasing concentrations of the sample compounds, with or without a rightward shift in agonist potency, is an indication of the degree of noncompetitive antagonism at mGluR4. The second mode also indicates whether the sample compounds also affect the maximum response to mGluR4 to agonists.

rat mGluR4 = target: T2, rat mGluR4 (Rattus norvegicus, UniProt P31423); assay: rat mGluR4/GIRK potentiation, thallium responsive dye assay in co-transfected HEK cells; type: cell-based; details: for rGluMax: maximum extent of potentiation
T2 construct: expressed in transfected cells; host or cells: HEK cells
T2 sequence (P31423 33-912): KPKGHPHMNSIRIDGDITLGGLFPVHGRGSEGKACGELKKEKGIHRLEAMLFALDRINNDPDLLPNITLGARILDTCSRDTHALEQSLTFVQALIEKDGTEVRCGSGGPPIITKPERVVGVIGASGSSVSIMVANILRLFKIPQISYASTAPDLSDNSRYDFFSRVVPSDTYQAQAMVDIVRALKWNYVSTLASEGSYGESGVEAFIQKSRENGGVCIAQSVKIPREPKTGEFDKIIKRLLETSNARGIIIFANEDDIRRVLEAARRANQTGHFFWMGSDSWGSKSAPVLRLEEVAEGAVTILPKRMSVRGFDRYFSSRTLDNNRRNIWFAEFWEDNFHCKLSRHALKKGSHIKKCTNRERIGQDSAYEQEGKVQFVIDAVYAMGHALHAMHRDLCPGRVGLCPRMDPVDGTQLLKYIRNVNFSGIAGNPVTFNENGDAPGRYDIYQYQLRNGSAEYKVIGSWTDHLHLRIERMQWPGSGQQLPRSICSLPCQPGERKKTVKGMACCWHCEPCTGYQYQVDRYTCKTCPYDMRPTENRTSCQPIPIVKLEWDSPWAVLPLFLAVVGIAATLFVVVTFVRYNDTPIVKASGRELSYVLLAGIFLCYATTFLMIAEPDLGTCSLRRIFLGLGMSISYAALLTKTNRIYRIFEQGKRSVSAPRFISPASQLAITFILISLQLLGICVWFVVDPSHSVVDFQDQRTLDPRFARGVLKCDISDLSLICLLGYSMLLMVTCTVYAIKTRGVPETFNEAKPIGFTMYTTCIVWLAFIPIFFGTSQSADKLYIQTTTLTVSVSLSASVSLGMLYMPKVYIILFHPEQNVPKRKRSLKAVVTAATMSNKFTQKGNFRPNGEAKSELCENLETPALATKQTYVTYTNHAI
Method: as §1, §2

| Emax (human mGluR4) [%] | rGluMax (rat mGluR4; rat mGluR4/GIRK) | EC50 (human mGluR4) [µM] | EC50 (rat mGluR4; EC50 for potentiation, rat mGluR4/GIRK, with EC20 concentration of agonist, read-out: rEC50) [µM] | Structure (SMILES) | EC50 (rat mGluR4) [µM] |
| --- | --- | --- | --- | --- | --- |
| 222 | – | – | – | O=C(Nc1ccc(N2C(=O)[C@@H]3[C@H](C2=O)[C@@H]2C=C[C@H]3CC2)c(Cl)c1)c1ccccn1 [Example 1] | – |
| 211 | 110.2 | – | – | O=C(Nc1ccc(N2C(=O)C3[C@H]4C=C[C@H](C4)[C@H]3C2=O)c(Cl)c1)c1ccccn1 (some centres unmarked) [Example 2] | – |
| 88 | – | 0.329 | – | O=C(Nc1ccc(N2C(=O)CC(Cc3ccccc3Cl)(c3ccccc3)C2=O)c(Cl)c1)c1ccccn1 (centres unmarked) [Example 4, N-(3-chloro-4-(3-(2-chlorobenzyl)-2,5-dioxo-3-phenylpyrrolidin-1-yl)phenyl)picolinamide] | – |
| 155 | – | 1.81 | – | CC1(C)CC(=O)N(c2ccc(NC(=O)c3ccccn3)cc2Cl)C1=O [Example 5, N-(3-chloro-4-(3,3-dimethyl-2,5-dioxopyrrolidin-1-yl)phenyl)picolinamide] | – |
| 245 | – | – | – | CC1(c2ccccc2)CC(=O)N(c2ccc(NC(=O)c3ccccn3)cc2Cl)C1=O (centres unmarked) [Example 6, N-(3-chloro-4-(3-methyl-2,5-dioxo-3-phenylpyrrolidin-1-yl)phenyl)picolinamide] | – |
| 209 | – | 1.95 | – | O=C(Nc1ccc(N2C(=O)[C@H]3CC[C@H](c4ccccc4)C[C@H]3C2=O)c(Cl)c1)c1ccccn1 [Example 7] | – |
| 189 | 123.3 | – | 0.68 | O=C(Nc1ccc(N2C(=O)[C@@H]3CCCC[C@H]3C2=O)c(Cl)c1)c1ccccn1 [Example 8, N-(3-chloro-4-((3aR,7aR)-1,3-dioxo-1H-isoindol-2(3H,3aH,4H,5H,6H,7H,7aH)-yl)phenyl)picolinamide] | – |
| 116 | – | – | – | O=C(Nc1ccc(N2C(=O)[C@H]3CCCC[C@H]3C2=O)c(Cl)c1)c1ccccn1 [Example 9, N-(3-chloro-4-((3aR,7aS)-1,3-dioxo-1H-isoindol-2(3H,3aH,4H,5H,6H,7H,7aH)-yl)phenyl)picolinamide] | – |
| 215 | – | 0.574 | – | CC1CCC2C(=O)N(c3ccc(NC(=O)c4ccccn4)cc3Cl)C(=O)C2C1 (centres unmarked) [Example 10, N-(3-chloro-4-(5-methyl-1,3-dioxo-1H-isoindol-2(3H,3 aH,4H,5H,6H,7H,7aH)-yl)phenyl)picolinamide] | – |
| 64 | – | 1.14 | – | O=C(Nc1ccc(N2C(=O)[C@H](c3ccccc3)[C@H](c3ccccc3)C2=O)c(Cl)c1)c1ccccn1 [Example 11, N-(3-chloro-4-((3R,4S)-2,5-dioxo-3,4-diphenylpyrrolidin-1-yl)phenyl)picolinamide] | – |
| 276 | – | 0.254 | – | O=C(Nc1ccc(N2C(=O)C3=C(C2=O)c2ccccc2CC3)c(Cl)c1)c1ccccn1 [Example 12, N-(3-chloro-4-(1,3-dioxo-4,5-dihydro-1H-benzo[e]isoindol-2(3H)-yl)phenyl)picolinamide] | – |
| 256 | – | 0.118 | – | O=C(Nc1ccc(N2C(=O)Cc3ccccc3C2=O)c(Cl)c1)c1ccccn1 [Example 13, N-(3-chloro-4-(1,3-dioxo-3,4-dihydroisoquinolin-2(1H)-yl)phenyl)picolinamide] | – |
| 193 | – | 0.163 | – | O=C(Nc1ccc(N2C(=O)CC3(CCCCC3)CC2=O)c(Cl)c1)c1ccccn1 [Example 14, N-(3-chloro-4-(2,4-dioxo-3-azaspiro[5.5]undecan-3-yl)phenyl)picolinamide] | – |
| 139 | 86.1 | – | – | O=C(Nc1ccc(N2C(=O)CC3(CCCCC3)C2=O)c(Cl)c1)c1ccccn1 [Example 15, N-(3-chloro-4-(1,3-dioxo-2-azaspiro[4.5]decan-2-yl)phenyl)picolinamide] | – |
| 119 | – | 5.94 | – | O=C(Nc1ccc(N2C(=O)CCC2=O)c(Cl)c1)c1ccccn1 [Example 16, N-(3-chloro-4-(2,5-dioxopyrrolidin-1-yl)phenyl)picolinamide] | – |
| 40 | – | 3.13 | – | O=C(Nc1ccc(N2C(=O)CCC2=O)c(Cl)c1)c1cccc(F)n1 [Example 17, N-(3-chloro-4-(2,5-dioxopyrrolidin-1-yl)phenyl)-6-fluoropicolinamide] | – |
| 37 | – | 2.55 | – | O=C(Nc1ccc(N2C(=O)CCC2=O)c(Cl)c1)c1cccc(Cl)n1 [Example 18, 6-Chloro-N-(3-chloro-4-(2,5-dioxopyrrolidin-1-yl)phenyl)picolinamide] | – |
| 46 | – | 10 | – | O=C(Nc1ccc(N2C(=O)CCC2=O)c(Cl)c1)c1ccncn1 [Example 19, N-(3-chloro-4-(2,5-dioxopyrrolidin-1-yl)phenyl) pyrimidine-4-carboxamide] | – |
| 69 | – | 7.73 | – | O=C(Nc1ccc(N2C(=O)CCC2=O)c(Cl)c1)c1nccs1 [Example 20, N-(3-chloro-4-(2,5-dioxopyrrolidin-1-yl)phenyl)thiazole-2-carboxamide] | – |
| 62 | – | 8.66 | – | O=C(Nc1ccc(N2C(=O)CCC2=O)c(Cl)c1)c1cscn1 [Example 21, N-(3-chloro-4-(2,5-dioxopyrrolidin-1-yl)phenyl)thiazole-4-carboxamide] | – |

| Structure (SMILES) | Emax (human mGluR4) [%] | rGluMax (rat mGluR4; rat mGluR4/GIRK) | EC50 (human mGluR4) [µM] | EC50 (rat mGluR4; EC50 for potentiation, rat mGluR4/GIRK, with EC20 concentration of agonist, read-out: rEC50) [µM] | EC50 (rat mGluR4) [µM] |
| --- | --- | --- | --- | --- | --- |
| O=C(Nc1ccc(N2C(=O)CC(c3ccccc3)C2=O)c(Cl)c1)c1ccccn1 (centres unmarked) [Example 3, N-(3-chloro-4-(2,5-dioxo-3-phenylpyrrolidin-1-yl)phenyl)picolinamide] | 219 | 128.7 | – | – | 0.69 |
